Experimental data as given in patent publication US20240287054A1, “COMPOUNDS THAT BIND NON-CANONICAL G-QUADRUPLEX STRUCTURES AND METHODS OF MAKING AND USING THE SAME” (The U.S.A., as Represented by the Secretary, Department of …, priority 2021, published 2024).
Like-named read-outs stand apart in the source and are kept apart here.

Tests used:
Type in all cases: binding, human
MYCN G4 DNA [1] = assay: Circular dichroism (CD) thermal melting assay of MYCN G4; settings: for increase of Tm (ΔTm) of MYCN G4: 20 μM compound, 10 mM Tris pH 7.0, 5 mM KCl
Procedure: For thermal melt assay, MYCN oligonucleotides were prepared in a low KCl buffer (10 mM Tris, pH7.0, 5 mM KCl) at 5 μM concentration. To test the stabilization effect, G4 samples were incubated with and without 20 μM compound (final solution containing 5% DMSO). Then a total of 300 μL solution was added in a cuvette and heated from 20° C. to 95° C. in a CD spectrometer with an interval of 1° C. To calculate the melting temperature (Tm), the peak of CD spectrum at 263 nm was tracked, and […] vs temperature was plotted and fitted using a nonlinear sigmoidal dose-response model with a variable slope in GraphPad Prism 8 software. The shifting of melting temperature (ΔTm) was calculated using Tm (compound)−Tm (DMSO).
For CD melting assay, MYCN oligonucleotides were prepared in KCl buffer (10 mM sodium phosphate, pH7.0, 5 mM KCl) at 5 μM concentration. To test the stabilization effect of the compounds, MYCN G4 DNA samples were mixed with/without the compound (final solution containing 5% DMSO) at designed concentration. Then a total of 300 μL solution was added in a cuvette and heated from 20 to 80° C. in a CD spectrometer with an interval of 1° C. To calculate the melting temperature (Tm), the peak of CD spectrum at 263 nm was tracked, and […] vs temperature was plotted and fitted using a nonlinear sigmoidal dose-response model with a variable slope in GraphPad Prism 8 software.

MYCN G4 DNA [2] = assay: Surface plasmon resonance (SPR) with immobilized biotinylated MYCN G4 DNA; settings: for positive binding in SPR (SNR>3): single concentration 100 μM compound
Outline: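 Biotinylated MYCN G4 DNA, annealed at 95 °C, was captured on a streptavidin-coated CM5 chip; running buffer was 10 mM Tris pH 7.0, 100 mM KCl, 0.005% Tween 20, 5% DMSO. Compound series were injected at 25 μL/min (120 s association, 200 s dissociation), reference-subtracted, and KD was fitted with a Langmuir 1:1 model.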

MYCN G4 DNA with 10×tRNA = assay: Fluorescence titration of MYCN G4 in presence/absence of excess tRNA; settings: presence/absence of 10×tRNA
Procedure: 2-Aminopurine (2-AP) fluorescence titration. Fluorescence titrations based on 2-aminopurine labeling were performed using the protocol reported previously. Briefly, MYCN G4 oligonucleotide with a 2-AP substitution at either A11 or A18 position was annealed by heating the sample to 95° C. for 5 min and cooling down to RT slowly. The oligonucleotide with folded structure was diluted to 10 μM in Tris buffer (10 mM Tris, pH7.0, 100 mM KCl, 0.005% Tween 20) and prepared in a black 96-well plate (Costar) in triplicate as designed. Small molecules were diluted in DMSO to obtain a series of solutions with concentrations ranging from 0.1 to 5 mM, and then diluted by 20 times added into the plate (5% DMSO final concentration). The final concentration of 2-AP DNA was 1 μM in the well plate. To obtain the background fluorescence, small molecule solutions without DNA were also prepared in the same plate. After incubation for 30 min at RT, the plate was briefly centrifuged and scanned in Synergy Mx microplate reader (BioTek) with Ex 310 nm/Em 365 nm. Fluorescence signals were calculated by averaging the intensities in triplicate wells after subtracting the references. Finally, the binding signals were normalized and the KD value was determined by fitting the curve using a nonlinear sigmoidal dose-response model with a variable slope in GraphPad Prism 8.3.1 software.

[3] = MYCN G4, Langmuir 1:1 model, read-out: SPR KD

| Structure (SMILES) | ΔTm of MYCN G4 (MYCN G4 DNA [1]; 10 mM sodium phosphate pH 7.0, 5 mM KCl, 5 μM DNA) | Kd (MYCN G4 DNA [2]; MYCN hairpin G4, SPR titration, read-out: KD by SPR) | effect of excess tRNA on binding affinity (MYCN G4 DNA with 10×tRNA) | increase of Tm (ΔTm) of MYCN G4 (MYCN G4 DNA [1]) | Kd (MYCN G4 DNA [2]; [3]) | positive binding in SPR (SNR>3) (MYCN G4 DNA [2]) | ΔTm of MYCN G4 at 40 μM (MYCN G4 DNA [1]; 40 μM MY-1, versus 20 μM) |
| --- | --- | --- | --- | --- | --- | --- | --- |
| COc1ccc(-c2noc(-c3ccc(NCCCNc4c5ccc(Cl)cc5nc5ccc(OC)cc45)nn3)n2)cc1 [B33, N^1-(6-chloro-2-methoxyacridin-9-yl)-N^3-(6-(3-(4-methoxyphenyl)-1,2,4-oxadiazol-5-yl)pyridazin-3-yl)propane-1,3-diamine] | 6.4 °C | 70 ± 13 nM |  |  |  |  |  |
| CCCN1CCN(c2nnc(-n3cccc3CNCCCN3CCCCCC3)s2)CC1 [Compound 1] |  |  | no effect | 4.7±0.7 °C | 11700 ± 2600 nM | hits |  |
| COc1ccc(-c2noc(-c3ccc(NCCCN4CCCC4)nn3)n2)cc1 [MY-1, 6-(3-(4-methoxyphenyl)-1,2,4-oxadiazol-5-yl)-N-(3-(pyrrolidin-1-yl)propyl)pyridazin-3-amine] |  |  | no effect | 3.7±0.5 °C | 3600 ± 2400 nM | hits | not significantly increased |
| COc1ccc(-c2noc(-c3ccc(NCCCN4CCCCCC4)nn3)n2)cc1 [MY-8, N-(3-(azepan-1-yl)propyl)-6-(3-(4-methoxyphenyl)-1,2,4-oxadiazol-5-yl)pyridazin-3-amine] |  |  |  |  | 1500 ± 300 nM |  |  |
